Test results taken from ChEMBL document CHEMBL1201862, “PubChem BioAssay data set” (2004).
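Compound exposure: 48 hours, 5 concentrations, 96-well plates. Here, GI50 denotes the concentration required for 50% inhibition of growth.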 Activity calls are given as the source filed them. Rule as the data show it: active = GI50 up to about 1.1 µM and inactive = higher.

Columns and labels:
Assay in all cases: inhibition of tumour cell growth, NCI panel, 48 h
HL-60 = test system: HL-60
OVCAR-3 = test system: OVCAR-3
NCI-H23 = test system: NCI-H23
EKVX = test system: EKVX
MDA-MB-231 = test system: MDA-MB-231
T47D = test system: T47D
MOLT-4 = test system: MOLT-4
CCRF-CEM = test system: CCRF-CEM
LOX IMVI = test system: LOX IMVI
CAKI-1 = test system: CAKI-1
COLO 205 = test system: COLO 205
SF-295 = test system: SF-295
TK-10 = test system: TK-10
OVCAR-4 = test system: OVCAR-4
HCC 2998 = test system: HCC 2998
PC-3 = test system: PC-3
UO-31 = test system: UO-31
MDA-MB-435 = test system: MDA-MB-435
RPMI-8226 = test system: RPMI-8226

Measured: GI50

Cc1ccc(S(=O)(=O)N/N=C2\CC3C4CCC3C2C4)cc1 (stereo unspecified)
inactive: HL-60 > 100 µM | OVCAR-3 > 100 µM | NCI-H23 > 100 µM | EKVX > 100 µM | MDA-MB-231 > 100 µM | T47D > 100 µM | MOLT-4 > 100 µM | CCRF-CEM > 100 µM | LOX IMVI > 100 µM | CAKI-1 > 100 µM | COLO 205 > 100 µM | SF-295 > 100 µM | TK-10 > 100 µM | OVCAR-4 > 100 µM | HCC 2998 > 100 µM | PC-3 > 100 µM | UO-31 > 100 µM | MDA-MB-435 > 100 µM

O=C1N=C2N=C(c3ccc(Cl)cc3)N(c3ccc(Cl)cc3)N2Sc2ccccc21
inactive: HL-60 > 100 µM | OVCAR-3 > 100 µM | NCI-H23 > 100 µM | EKVX > 100 µM | MOLT-4 > 100 µM | CCRF-CEM > 100 µM | LOX IMVI > 100 µM | CAKI-1 > 100 µM | COLO 205 > 100 µM | SF-295 64.6 µM | TK-10 > 100 µM | RPMI-8226 > 100 µM | OVCAR-4 > 100 µM | HCC 2998 > 100 µM | UO-31 32.4 µM

CC(=O)OCC(=O)OC[C@H](OCc1ccccc1)[C@@H]1[C@H](OC(C)=O)C(=O)N1Cc1ccccc1
inactive: OVCAR-3 > 100 µM | NCI-H23 > 100 µM | EKVX > 100 µM | MDA-MB-231 > 100 µM | MOLT-4 > 100 µM | CCRF-CEM > 100 µM | LOX IMVI > 100 µM | COLO 205 > 100 µM | SF-295 > 100 µM | TK-10 > 100 µM | RPMI-8226 > 100 µM | OVCAR-4 > 100 µM | PC-3 > 100 µM | UO-31 > 100 µM | MDA-MB-435 > 100 µM

CC1(C2CCC3(C)C(C2)C3Sc2ccccc2)OCCO1 (stereo unspecified)
inactive: HL-60 12.1 µM | OVCAR-3 14.4 µM | NCI-H23 22.4 µM | EKVX 26.7 µM | MOLT-4 18 µM | CCRF-CEM 17.9 µM | LOX IMVI 23.7 µM | CAKI-1 20.3 µM | COLO 205 19.4 µM | SF-295 21.5 µM | TK-10 56.6 µM | RPMI-8226 13.5 µM | OVCAR-4 31.3 µM | HCC 2998 20.1 µM | UO-31 12.6 µM

CC[n+]1cnc(N)c2c(-c3ccc(Cl)cc3)cn(-c3ccc(C)cc3)c21
inactive: HL-60 24.8 µM | OVCAR-3 9.38 µM | NCI-H23 19.1 µM | EKVX 14.8 µM | MDA-MB-231 17 µM | T47D 12 µM | MOLT-4 4.52 µM | CCRF-CEM 6.89 µM | LOX IMVI 11.4 µM | CAKI-1 16 µM | COLO 205 3.78 µM | SF-295 12.7 µM | TK-10 17.6 µM | OVCAR-4 2.77 µM | HCC 2998 4.33 µM | PC-3 10.5 µM | UO-31 9.93 µM | MDA-MB-435 11.5 µM

COc1cc(OC)cc(N2CCC(c3c(N)nc(N)nc3Cl)CC2)c1
inactive: HL-60 18 µM | OVCAR-3 83.9 µM | NCI-H23 > 100 µM | EKVX 95.3 µM | MOLT-4 31.5 µM | CCRF-CEM 47.1 µM | LOX IMVI > 100 µM | CAKI-1 > 100 µM | COLO 205 58.1 µM | SF-295 83 µM | TK-10 > 100 µM | RPMI-8226 16.9 µM | OVCAR-4 91.8 µM | HCC 2998 67.5 µM | UO-31 62.8 µM

CC1CC2OC(=O)CC2C[C@@H]1O[Si](C)(C)C(C)(C)C (stereo partly specified)
inactive: HL-60 20.6 µM | OVCAR-3 40.4 µM | NCI-H23 63 µM | EKVX > 100 µM | MOLT-4 21.5 µM | CCRF-CEM 36.8 µM | LOX IMVI 55.7 µM | CAKI-1 70.5 µM | COLO 205 74.6 µM | SF-295 58.7 µM | TK-10 > 100 µM | RPMI-8226 21.7 µM | OVCAR-4 61 µM | HCC 2998 43.3 µM | UO-31 57.7 µM
